This note sets out measurements from paper PMC12202533, “Mechanistic Insights and Anti-cancer Activity of 2H-benzo[b][1,4]oxazin-3(4H)-one Linked 1,2,3-Triazoles in Human Cancer Cells” (Frontiers in Pharmacology, 2025).

For this series, the system named is KM mice. In words: Acute toxicity test in mice. It is filed as in vivo. The conditions noted are these: 800 mg/kg oral gavage; for safety / toxicity in mice: 800 mg/kg. Here is the method:
We further evaluated the safety of compound 14b through an acute toxicity study in KM mice. Male and female mice were divided into two groups: a control group and a 14 b-treated group. The treated group received 800 mg/kg of compound 14b via oral gavage, while the control group was given an equivalent volume of solvent. Body weight was monitored over a 15-day period. At the end of the study, blood samples were collected from the retro-orbital sinus to assess the biochemical markers GPT and GOT, and the major organs—heart, liver, spleen, lungs, and kidneys—were weighed and subjected to HE staining.

`O=C1COc2ccc(NC(=O)c3cccc(-c4cn(-c5cccc(Br)c5)nn4)c3)cc2N1` [Compound 14b]: the “HE staining of the major organs (heart, liver, spleen, lungs, and kidneys)” value is reported as “no significant histopathological differences”; the “organ indices of the major organs versus control group” value was “no significant changes”; the “safety / toxicity in mice” value was “low toxicity”. Also, under “15-day period”, the “body weight versus control group” value is reported as “no significant differences”. For the same compound, the GPT levels entry (blood) is reported as “slight but not statistically significant increase”. Under “listed as 14 b”, the “safety / toxicity in mice” value is listed as “favorable safety profile”.
